# Measured values as given in patent US20260274829A1, “NEW E3 UBIQUITIN LIGASE LIGAND, PROTEIN DEGRADATION AGENT AND USE THEREOF” (GLUETACS THERAPEUTICS (SHANGHAI) CO., LTD., priority 2023, published 2026).
# What was measured:
# Assay type in all cases: cell-based
# WEE1 = molecular target: T1, WEE1 (Homo sapiens, UniProt P30291+Q96SW2); experiment: Western blot degradation of WEE1 in hPBMC
# T1 construct: endogenous in cells; host or cells: hPBMC
# Procedure: (§1) Conventional Western blot assay was performed to evaluate the effects of the compounds of the present disclosure on the expression of target proteins in cells.
# (§2) • (1) Cell Seeding and Protein Harvesting: The selected cells were processed according to the cell seeding procedure and protein harvesting procedure in Table III-2.
# (§3) • (2) To the collected supernatant, 5×SDS sample loading buffer was added, followed by denaturation at 95° C. for 5 minutes. The denatured samples were then separated by SDS-PAGE electrophoresis on a polyacrylamide gel. Proteins were transferred to a nitrocellulose membrane ([…] NC membrane), blocked with blocking buffer at room temperature for 1 hour, and subjected to antibody incubation and development procedures according to the antibody manufacturer's instructions (Cell Signaling Technology).
# (§4) Half-Maximal Degradation Concentration value (the drug concentration required for degrading proteins by 50%, abbreviated as DC50) reads method: comparing the grayscale values of Western blot bands from drug-treated samples with those from blank DMSO-treated controls, and identifying the drug concentration range at which the grayscale value is half that of the DMSO-treated control bands.
# (§5) DC50 values can be calculated using ImageJ software to measure grayscale values of Western blot bands from drug-treated samples. The concentration-response curve is fitted to estimate the drug concentration corresponding to half the grayscale value.
# (§6) Target protein remaining (0%) refers to the percentage of target protein remaining in hPBMC cells after treatment with protein degrader compounds.
# (§7) Calculation method for target protein remaining (0%): Use ImageJ software to measure grayscale values of Western blot bands from drug (protein degrader)-treated samples. The grayscale value of drug-treated bands is divided by that of internal control protein bands, and the resulting quotient is normalized to obtain the relative percentage of remaining target protein after protein degrader treatment.
# IKZF1 = molecular target: T2, IKZF1 (Homo sapiens, UniProt Q13422+Q96SW2); experiment: Western blot degradation of IKZF1 in hPBMC
# T2 construct: endogenous in cells; host or cells: hPBMC
# Procedure: as §1, §2, §3, §4, §5, §6, §7
# IKZF2 = molecular target: T3, IKZF2 (Homo sapiens, UniProt Q96SW2+Q9UKS7); experiment: Western blot degradation of IKZF2 in hPBMC
# T3 construct: endogenous in cells; host or cells: hPBMC
# Procedure: as §1, §2, §3, §4, §5, §6, §7
# IKZF3 = molecular target: T4, IKZF3 (Homo sapiens, UniProt Q96SW2+Q9UKT9); experiment: Western blot degradation of IKZF3 in hPBMC
# T4 construct: endogenous in cells; host or cells: hPBMC
# Procedure: as §1, §2, §3, §4, §5, §6, §7
# CK1a = molecular target: T5, CK1a (Homo sapiens, UniProt P48729+Q96SW2); experiment: Western blot degradation of CK1a in hPBMC
# T5 construct: endogenous in cells; host or cells: hPBMC
# Procedure: as §1, §2, §3, §4, §5, §6, §7
# GSPT1 = molecular target: T6, GSPT1 (Homo sapiens, UniProt P15170+Q96SW2); experiment: Western blot degradation of GSPT1 in hPBMC
# T6 construct: endogenous in cells; host or cells: hPBMC
# Procedure: as §1, §2, §3, §4, §5, §6, §7
# T5 sequence (P48729 whole entry): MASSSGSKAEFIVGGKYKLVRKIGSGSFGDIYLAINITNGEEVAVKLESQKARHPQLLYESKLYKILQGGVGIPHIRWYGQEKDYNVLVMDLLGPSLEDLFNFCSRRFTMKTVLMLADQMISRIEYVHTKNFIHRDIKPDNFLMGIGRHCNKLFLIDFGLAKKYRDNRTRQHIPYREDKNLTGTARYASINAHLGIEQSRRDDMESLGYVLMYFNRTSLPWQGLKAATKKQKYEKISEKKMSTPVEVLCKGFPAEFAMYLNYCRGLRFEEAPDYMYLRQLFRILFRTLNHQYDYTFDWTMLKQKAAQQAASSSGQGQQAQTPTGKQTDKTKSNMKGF
# T5 sequence (Q96SW2 whole entry): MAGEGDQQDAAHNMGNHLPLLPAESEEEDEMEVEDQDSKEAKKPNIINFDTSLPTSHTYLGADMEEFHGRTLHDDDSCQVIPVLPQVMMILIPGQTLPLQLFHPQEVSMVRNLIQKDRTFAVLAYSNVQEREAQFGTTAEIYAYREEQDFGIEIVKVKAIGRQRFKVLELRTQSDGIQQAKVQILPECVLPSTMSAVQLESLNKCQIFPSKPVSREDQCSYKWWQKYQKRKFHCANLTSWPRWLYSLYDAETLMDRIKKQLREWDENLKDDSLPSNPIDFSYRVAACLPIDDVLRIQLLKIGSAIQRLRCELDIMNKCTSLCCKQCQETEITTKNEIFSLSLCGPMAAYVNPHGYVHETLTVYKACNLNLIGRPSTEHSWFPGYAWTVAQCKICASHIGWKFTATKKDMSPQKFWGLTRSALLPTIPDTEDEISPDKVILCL
# T5 sequence (Q16531 whole entry partner): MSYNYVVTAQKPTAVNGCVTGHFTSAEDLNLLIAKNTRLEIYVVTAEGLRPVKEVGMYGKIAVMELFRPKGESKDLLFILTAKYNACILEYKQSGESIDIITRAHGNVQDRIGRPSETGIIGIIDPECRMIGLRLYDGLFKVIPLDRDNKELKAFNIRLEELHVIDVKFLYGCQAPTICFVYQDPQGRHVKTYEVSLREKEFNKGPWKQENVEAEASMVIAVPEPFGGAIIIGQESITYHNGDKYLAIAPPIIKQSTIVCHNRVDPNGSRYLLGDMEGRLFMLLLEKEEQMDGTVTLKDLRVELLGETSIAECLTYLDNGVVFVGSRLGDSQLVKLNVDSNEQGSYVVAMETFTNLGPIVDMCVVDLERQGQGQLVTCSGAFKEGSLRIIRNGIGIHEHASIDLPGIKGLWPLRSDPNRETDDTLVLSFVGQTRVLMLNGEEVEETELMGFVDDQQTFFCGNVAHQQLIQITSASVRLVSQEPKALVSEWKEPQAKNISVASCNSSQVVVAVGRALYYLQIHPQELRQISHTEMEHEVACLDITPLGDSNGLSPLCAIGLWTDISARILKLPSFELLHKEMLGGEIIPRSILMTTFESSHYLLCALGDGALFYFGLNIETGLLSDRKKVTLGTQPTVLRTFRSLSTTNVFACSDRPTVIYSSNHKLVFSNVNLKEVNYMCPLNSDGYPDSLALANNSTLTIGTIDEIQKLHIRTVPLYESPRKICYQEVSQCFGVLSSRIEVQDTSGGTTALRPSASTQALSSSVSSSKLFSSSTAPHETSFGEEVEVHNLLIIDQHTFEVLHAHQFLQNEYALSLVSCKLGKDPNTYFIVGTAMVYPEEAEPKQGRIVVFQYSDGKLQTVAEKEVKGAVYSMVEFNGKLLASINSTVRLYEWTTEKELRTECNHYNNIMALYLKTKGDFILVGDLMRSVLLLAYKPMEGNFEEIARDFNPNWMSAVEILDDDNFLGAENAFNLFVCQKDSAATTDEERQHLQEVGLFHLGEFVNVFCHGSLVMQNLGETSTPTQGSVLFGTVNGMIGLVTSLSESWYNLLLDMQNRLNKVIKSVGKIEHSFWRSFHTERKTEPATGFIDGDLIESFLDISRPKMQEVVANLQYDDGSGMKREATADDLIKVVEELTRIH
# T2 sequence (Q13422 whole entry): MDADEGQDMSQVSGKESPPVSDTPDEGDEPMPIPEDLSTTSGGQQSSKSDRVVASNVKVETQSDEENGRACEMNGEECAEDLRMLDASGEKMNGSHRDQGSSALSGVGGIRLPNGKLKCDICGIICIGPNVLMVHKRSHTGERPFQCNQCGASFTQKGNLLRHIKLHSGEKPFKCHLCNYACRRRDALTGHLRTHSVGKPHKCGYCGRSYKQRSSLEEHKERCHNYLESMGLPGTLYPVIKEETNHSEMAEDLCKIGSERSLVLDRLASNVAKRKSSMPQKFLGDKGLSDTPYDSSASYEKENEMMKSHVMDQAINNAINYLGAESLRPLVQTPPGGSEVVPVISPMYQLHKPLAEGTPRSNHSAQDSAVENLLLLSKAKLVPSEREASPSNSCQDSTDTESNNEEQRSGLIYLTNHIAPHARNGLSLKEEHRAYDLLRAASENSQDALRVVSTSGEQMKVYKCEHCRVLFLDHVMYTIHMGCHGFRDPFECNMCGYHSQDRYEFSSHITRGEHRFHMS
# T2 sequence (Q96SW2 whole entry): as the sequence (Q96SW2 whole entry) above
# T2 sequence (Q16531 whole entry partner): as the sequence (Q16531 whole entry partner) above
# T6 sequence (P15170 whole entry): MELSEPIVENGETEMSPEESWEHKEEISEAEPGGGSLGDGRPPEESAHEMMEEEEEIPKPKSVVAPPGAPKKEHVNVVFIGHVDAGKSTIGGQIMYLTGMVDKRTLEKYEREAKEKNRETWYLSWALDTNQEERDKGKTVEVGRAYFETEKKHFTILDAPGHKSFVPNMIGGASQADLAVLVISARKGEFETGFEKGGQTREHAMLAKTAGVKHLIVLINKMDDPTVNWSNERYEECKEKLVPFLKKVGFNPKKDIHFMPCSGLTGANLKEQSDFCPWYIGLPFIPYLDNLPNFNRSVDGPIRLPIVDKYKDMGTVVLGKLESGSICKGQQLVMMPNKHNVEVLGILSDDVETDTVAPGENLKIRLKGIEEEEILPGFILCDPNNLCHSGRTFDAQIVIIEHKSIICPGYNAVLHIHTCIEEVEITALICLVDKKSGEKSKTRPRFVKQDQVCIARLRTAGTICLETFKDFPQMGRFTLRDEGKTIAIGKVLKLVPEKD
# T6 sequence (Q96SW2 whole entry): as the sequence (Q96SW2 whole entry) above
# T6 sequence (Q16531 whole entry partner): as the sequence (Q16531 whole entry partner) above
# T3 sequence (Q9UKS7 whole entry): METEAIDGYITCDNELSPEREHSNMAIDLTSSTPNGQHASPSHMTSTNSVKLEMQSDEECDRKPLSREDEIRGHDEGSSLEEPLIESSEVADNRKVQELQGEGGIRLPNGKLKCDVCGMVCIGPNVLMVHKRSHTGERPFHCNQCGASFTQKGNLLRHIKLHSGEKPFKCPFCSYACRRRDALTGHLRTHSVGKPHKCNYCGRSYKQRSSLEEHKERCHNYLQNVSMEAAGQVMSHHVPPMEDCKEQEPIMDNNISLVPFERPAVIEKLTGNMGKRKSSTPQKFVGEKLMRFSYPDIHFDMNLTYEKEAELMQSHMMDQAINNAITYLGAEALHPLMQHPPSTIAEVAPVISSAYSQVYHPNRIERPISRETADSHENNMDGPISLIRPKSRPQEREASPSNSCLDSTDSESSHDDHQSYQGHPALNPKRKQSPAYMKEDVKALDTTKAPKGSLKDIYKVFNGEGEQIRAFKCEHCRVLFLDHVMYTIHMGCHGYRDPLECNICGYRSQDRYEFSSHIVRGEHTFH
# T3 sequence (Q96SW2 whole entry): as the sequence (Q96SW2 whole entry) above
# T3 sequence (Q16531 whole entry partner): as the sequence (Q16531 whole entry partner) above
# T4 sequence (Q9UKT9 whole entry): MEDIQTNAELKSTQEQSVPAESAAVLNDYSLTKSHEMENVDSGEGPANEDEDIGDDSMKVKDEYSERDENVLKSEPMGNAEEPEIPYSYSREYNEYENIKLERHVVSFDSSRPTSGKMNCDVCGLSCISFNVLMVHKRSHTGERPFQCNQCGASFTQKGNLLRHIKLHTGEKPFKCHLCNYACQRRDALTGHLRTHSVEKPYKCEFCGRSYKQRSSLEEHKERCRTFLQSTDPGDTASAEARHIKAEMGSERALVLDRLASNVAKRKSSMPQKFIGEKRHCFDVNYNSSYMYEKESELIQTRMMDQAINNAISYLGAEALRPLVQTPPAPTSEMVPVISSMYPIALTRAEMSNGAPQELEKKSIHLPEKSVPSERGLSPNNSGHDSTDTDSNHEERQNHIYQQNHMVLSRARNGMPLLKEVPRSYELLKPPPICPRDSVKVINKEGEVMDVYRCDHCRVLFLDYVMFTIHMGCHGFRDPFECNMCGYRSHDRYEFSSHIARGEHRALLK
# T4 sequence (Q96SW2 whole entry): as the sequence (Q96SW2 whole entry) above
# T4 sequence (Q16531 whole entry partner): as the sequence (Q16531 whole entry partner) above
Structure (SMILES),Degradation of substrate protein WEE1 (substrate protein remaining %) (WEE1),Degradation of substrate protein IKZF1 (substrate protein remaining %) (IKZF1),Degradation of substrate protein IKZF2 (substrate protein remaining %) (IKZF2),Degradation of substrate protein IKZF3 (substrate protein remaining %) (IKZF3),Degradation of substrate protein CK1a (substrate protein remaining %) (CK1a),Degradation of substrate protein GSPT1 (substrate protein remaining %) (GSPT1)
"O=C1CCN(c2cc(CCl)c(F)cn2)C(=O)N1 [GT-07199, 1-(4-(chloromethyl)-5-fluoropyridin-2-yl)dihydropyrimidine-2,4(1H,3H)-dione]",B (B is defined as substrate protein remaining % > 80%),B (B is defined as substrate protein remaining % > 80%),A (A is defined as 0% ≤ substrate protein remaining % ≤ 80%),A (A is defined as 0% ≤ substrate protein remaining % ≤ 80%),A (A is defined as 0% ≤ substrate protein remaining % ≤ 80%),A (A is defined as 0% ≤ substrate protein remaining % ≤ 80%)
"O=C1CCC(c2ccc(CO)nn2)C(=O)N1 (stereo not drawn) [GT-07636, 3-(6-(hydroxymethyl)pyridazin-3-yl)piperidine-2,6-dione]",B (B is defined as substrate protein remaining % > 80%),A (A is defined as 0% ≤ substrate protein remaining % ≤ 80%),A (A is defined as 0% ≤ substrate protein remaining % ≤ 80%),A (A is defined as 0% ≤ substrate protein remaining % ≤ 80%),B (B is defined as substrate protein remaining % > 80%),A (A is defined as 0% ≤ substrate protein remaining % ≤ 80%)
"O=C1CCC(Nc2cc(CO)ccn2)C(=O)N1 (stereo not drawn) [GT-07366, 3-((4-(hydroxymethyl)pyridin-2-yl)amino)piperidine-2,6-dione]",B (B is defined as substrate protein remaining % > 80%),B (B is defined as substrate protein remaining % > 80%),B (B is defined as substrate protein remaining % > 80%),B (B is defined as substrate protein remaining % > 80%),A (A is defined as 0% ≤ substrate protein remaining % ≤ 80%),A (A is defined as 0% ≤ substrate protein remaining % ≤ 80%)
"O=C1CCC(c2cc(CO)c(F)cn2)C(=O)N1 (stereo not drawn) [GT-07444, 3-(5-fluoro-4-(hydroxymethyl)pyridin-2-yl)piperidine-2,6-dione]",B (B is defined as substrate protein remaining % > 80%),B (B is defined as substrate protein remaining % > 80%),A (A is defined as 0% ≤ substrate protein remaining % ≤ 80%),A (A is defined as 0% ≤ substrate protein remaining % ≤ 80%),B (B is defined as substrate protein remaining % > 80%),B (B is defined as substrate protein remaining % > 80%)
"O=C1CCN(c2cnc(CCl)c(F)c2)C(=O)N1 [GT-07557, 1-(6-(chloromethyl)-5-fluoropyridin-3-yl)dihydropyrimidine-2,4(1H,3H)-dione]",A (A is defined as 0% ≤ substrate protein remaining % ≤ 80%),A (A is defined as 0% ≤ substrate protein remaining % ≤ 80%),B (B is defined as substrate protein remaining % > 80%),B (B is defined as substrate protein remaining % > 80%),A (A is defined as 0% ≤ substrate protein remaining % ≤ 80%),B (B is defined as substrate protein remaining % > 80%)
"O=Cc1cccnc1NC1CCC(=O)NC1=O (stereo not drawn) [GT-07447, 2-((2,6-dioxopiperidin-3-yl)amino)nicotinaldehyde]",A (A is defined as 0% ≤ substrate protein remaining % ≤ 80%),A (A is defined as 0% ≤ substrate protein remaining % ≤ 80%),A (A is defined as 0% ≤ substrate protein remaining % ≤ 80%),A (A is defined as 0% ≤ substrate protein remaining % ≤ 80%),A (A is defined as 0% ≤ substrate protein remaining % ≤ 80%),A (A is defined as 0% ≤ substrate protein remaining % ≤ 80%)
"CC(C)(C)[Si](C)(C)OCc1ccc(NC2CCC(=O)NC2=O)nn1 (stereo not drawn) [GT-07726, 3-((6-(((tert-butyldimethylsilyl)oxy)methyl)pyridazin-3-yl)amino)piperidine-2,6-dione]",A (A is defined as 0% ≤ substrate protein remaining % ≤ 80%),A (A is defined as 0% ≤ substrate protein remaining % ≤ 80%),A (A is defined as 0% ≤ substrate protein remaining % ≤ 80%),A (A is defined as 0% ≤ substrate protein remaining % ≤ 80%),B (B is defined as substrate protein remaining % > 80%),B (B is defined as substrate protein remaining % > 80%)
"NCc1cc(N2CCC(=O)NC2=O)ncc1F [GT-07369, 1-(4-(aminomethyl)-5-fluoropyridin-2-yl)dihydropyrimidine-2,4(1H,3H)-dione]",B (B is defined as substrate protein remaining % > 80%),B (B is defined as substrate protein remaining % > 80%),B (B is defined as substrate protein remaining % > 80%),B (B is defined as substrate protein remaining % > 80%),A (A is defined as 0% ≤ substrate protein remaining % ≤ 80%),A (A is defined as 0% ≤ substrate protein remaining % ≤ 80%)
"O=Cc1cnc(NC2CCC(=O)NC2=O)nc1 (stereo not drawn) [GT-07367, 2-((2,6-dioxopiperidin-3-yl)amino)pyrimidine-5-carbaldehyde]",B (B is defined as substrate protein remaining % > 80%),B (B is defined as substrate protein remaining % > 80%),B (B is defined as substrate protein remaining % > 80%),B (B is defined as substrate protein remaining % > 80%),A (A is defined as 0% ≤ substrate protein remaining % ≤ 80%),A (A is defined as 0% ≤ substrate protein remaining % ≤ 80%)
"O=C1CCC(Nc2ncccc2CO)C(=O)N1 (stereo not drawn) [GT-07197, 3-((3-(hydroxymethyl)pyridin-2-yl)amino)piperidine-2,6-dione]",B (B is defined as substrate protein remaining % > 80%),B (B is defined as substrate protein remaining % > 80%),B (B is defined as substrate protein remaining % > 80%),B (B is defined as substrate protein remaining % > 80%),A (A is defined as 0% ≤ substrate protein remaining % ≤ 80%),A (A is defined as 0% ≤ substrate protein remaining % ≤ 80%)
"O=Cc1cncc(NC2CCC(=O)NC2=O)c1 (stereo not drawn) [GT-07554, 5-((2,6-dioxopiperidin-3-yl)amino)nicotinaldehyde]",A (A is defined as 0% ≤ substrate protein remaining % ≤ 80%),A (A is defined as 0% ≤ substrate protein remaining % ≤ 80%),A (A is defined as 0% ≤ substrate protein remaining % ≤ 80%),A (A is defined as 0% ≤ substrate protein remaining % ≤ 80%),A (A is defined as 0% ≤ substrate protein remaining % ≤ 80%),B (B is defined as substrate protein remaining % > 80%)
